# Assays:
# [1] = system: primary human middle ear epithelial cells; test: G418 selection of cultured cells; assay type: cell-based; details: 2 and 7 days post G418 addition
# Experimental: (§1) Passage 3 human middle ear epithelial cell cultures (at 50-70% confluence) were infected with 1 ml of virus stock diluted in 9 ml of fresh SFM-HG for 48 hours. The virus was then removed and the medium was replaced with fresh SFM-HG. The cells were allowed to proliferate and once at 70% confluence, they were trypsinized and re-seeded in fresh SFM-HG medium containing G418 (Gibco-BRL, Gaithersburg, […].) at a concentration of 0.4 mg/ml.
# (§2) Cells were photographed prior to selection, at 2 days and at 7 days post G418 addition (panels, a, b and c, respectively). […]
# [2] = system: HPV-transformed human middle ear epithelial cell line HMEEC-1; test: G418 selection of cultured cells; assay type: cell-based; details: G418 0.4 mg/ml, 2 and 7 days post addition
# Experimental: as §1, §2
# MUC2 mRNA = test: RT-PCR of mucin mRNA expression after retinoic acid; assay type: cell-based, human; details: primary cultures
# Experimental: Polymerase chain reaction (PCR) assays were performed essentially following the package insert of the commercially available Gene-Amp kit (document No. 55635-6/89, available from Perkin-Elmer/Cetus, Emeryville, Calif.). The following reagents were mixed in a 0.5 mL polypropylene tube and used in performing PCR:
# After mixing, the reaction mixture was overlayed with a drop of mineral oil to 30 cycles of PCR, with the following cycle profile: 30 second denaturation, 1 minute annealing and 2 minute extension. The PCR products were run on a 1.2% TAE agarose gel.
# Expression of various genes was confirmed using the following PCR primers specific for: […]
# MEK1/2 (MAPK kinase) = test: Assay for MEK (phospho-MEK1/2 antibody detection); assay type: cell-based, human; details: HMEEC-1 cells treated for 5, 15 and 45 minutes
# Experimental: Cells were treated with IL-1 alpha for 5, 15 and 45 minutes. The MEK assay was done according to the manufacturer's protocol (PhosphoPlus, MEK1/2 Antibody Kit; New England BioLabs, Beverly, Mass.). Antibodies specific to the phosphorylated (phospho-MEK1/2) and unphosphorylated (MEK1/2) MEK protein were used to distinguish between the phosphorylated and unphosphorylated forms of the protein.
compound,measurement,setting,value
CN[C@@H]1[C@@H](O)[C@@H](O[C@@H]2[C@@H](O)[C@H](O[C@H]3O[C@H]([C@@H](C)O)[C@@H](O)[C@H](O)[C@H]3N)[C@@H](N)C[C@H]2N)OC[C@]1(C)O [G418],Response of cells to G418,[1],sensitivity
same,Response of cells to G418,[2],resistance
CC1=C(/C=C/C(C)=C/C=C/C(C)=C/C(=O)O)C(C)(C)CCC1 [Retinoic acid],MUC2 expression in response to RA,MUC2 mRNA,no effect
IL-1 alpha: cytokine used to treat HMEEC-1 cells,Activation (phosphorylation) of MEK1/2,MEK1/2 (MAPK kinase),activates
